In ChEMBL document CHEMBL4196010, “New hydrazides derivatives of isoniazid against Mycobacterium tuberculosis: Higher potency and lower hepatocytotoxicity” (Eur J Med Chem, 2018):
Converted amounts (≈) assume the structure as drawn.

What was measured:
Format in all cases: functional
[1] = tested on: Mycobacterium tuberculosis; assay: Antitubercular activity against wild-type isoniazid-resistant Mycobacterium tuberculosis harboring katG mutant after 5 days by microplate alamar blue assay
[2] = tested on: Mycobacterium tuberculosis; assay: Antitubercular activity against Mycobacterium tuberculosis SR 2571/0215 harboring katG mutant after 5 days by microplate alamar blue assay
[3] = tested on: Mycobacterium tuberculosis; assay: Antitubercular activity against isoniazid and rifampicin-resistant Mycobacterium tuberculosis T113/09 harboring katG and rpoB mutant after 5 days by microplate alamar blue assay

Compound: CC(=O)Nc1ccc(Cl)cc1C(F)(F)C(=O)NNC(=O)c1ccncc1
- MIC [1]: 136.6 µM (≈ 52.3 µg/mL)

Compound: CC(=O)Nc1ccccc1C(=O)C(=O)NNC(=O)c1ccncc1
- MIC [1]: 19.2 µM (≈ 6.27 µg/mL)
- MIC [2]: 38.3 µM (≈ 12.5 µg/mL)
- MIC [3]: 38.3 µM (≈ 12.5 µg/mL)

Compound: CC(=O)Nc1ccccc1C(F)(F)C(=O)NNC(=O)c1ccncc1
- MIC [1]: 143.7 µM (≈ 50.1 µg/mL)
- MIC [2]: 287.4 µM (≈ 100 µg/mL)
- MIC [3]: 287.4 µM (≈ 100 µg/mL)

Compound: CC(=O)Nc1ccc(F)cc1C(F)(F)C(=O)NNC(=O)c1ccncc1
- MIC [1]: 130.9 µM (≈ 47.9 µg/mL)

Compound: O=C(CCl)Nc1ccccc1C(=O)C(=O)NNC(=O)c1ccncc1
- MIC [2]: 69.4 µM (≈ 25 µg/mL)
- MIC [3]: 34.7 µM (≈ 12.5 µg/mL)

Compound: CC(=O)Nc1ccc(C)cc1C(F)(F)C(=O)NNC(=O)c1ccncc1
- MIC [1]: 138.1 µM (≈ 50 µg/mL)
- MIC [2]: >276.2 µM
- MIC [3]: 276.2 µM (≈ 100 µg/mL)

Compound: CC(=O)Nc1ccc(C)cc1C(=O)C(=O)NNC(=O)c1ccncc1
- MIC [2]: 36.7 µM (≈ 12.5 µg/mL)
- MIC [3]: 36.7 µM (≈ 12.5 µg/mL)

Compound: NNC(=O)c1ccncc1 [ISONIAZID]
- MIC [1]: >80 µM
- MIC [2]: 116.8 µM (≈ 16 µg/mL)
- MIC [3]: 58.4 µM (≈ 8.01 µg/mL)
